Converted amounts (≈) assume the structure as drawn. Some results are limits rather than exact numbers.

Usually Kd stands for the free concentration of one partner at which half of the binding sites on the other are occupied at equilibrium, for simple one-to-one binding. The term solubility denotes the concentration that dissolves in the medium under given conditions. Higher therefore signals much dissolved substance.

In series [1] the target is T1, JAK2 (JH1 domain-catalytic, Y1007F,Y1008F) kinase (Homo sapiens, UniProt O60674, Y1007F/Y1008F).
T1 construct: made in house; host or cells: transiently transfected HEK293 cells
Briefly: JAK2 Binding Assay (JAK2 JH1 Domain Binding Assay). The conditions noted are these: JAK2 JH1 domain binding, qPCR detection; read-out: JAK2 Kd.

For series [2], the target named is T2, JAK1 (Homo sapiens, UniProt P23458).
T2 construct: made in house; host or cells: T7 phage in BL21-derived E. coli or HEK-293 cells
Nature of the series: JAK Family Selectivity Assay: JAK1 vs JAK2 binding affinity. The conditions noted are these: Kd JAK1 over Kd JAK2. The method, then:
(§1) Provided compounds are evaluated for selectivity by comparing their JAK2 binding affinity (Kd) in the above JAK2 Binding Assay with their binding affinity (Kd) for one or more other kinases. Binding affinity for other kinases is determined as follows: Kinase-tagged T7 phage strains are prepared in an E. coli host derived from the BL21 strain. E. coli are grown to log-phase and infected with T7 phage and incubated with shaking at 32° C. until lysis. The lysates are centrifuged and filtered to remove cell debris. The remaining kinases are produced in HEK-293 cells and subsequently tagged with DNA for qPCR detection. Streptavidin-coated magnetic beads are treated with biotinylated small molecule ligands for 30 minutes at room temperature to generate affinity resins for kinase assays. The liganded beads are blocked with excess biotin and washed with blocking buffer (SeaBlock (Pierce), 1% BSA, 0.05% Tween 20, 1 mM DTT) to remove unbound ligand and to reduce non-specific binding. Binding reactions are assembled by combining kinases, liganded affinity beads, and test compounds in 1× binding buffer (20% SeaBlock, 0.17×PBS, 0.05% Tween 20, 6 mM DTT). Test compounds are prepared as 111× stocks in 100% DMSO. Kds are determined using an 11-point 3-fold compound dilution series with three DMSO control points. All compounds for Kd measurements are distributed by acoustic transfer (non-contact dispensing) in 100% DMSO. The compounds are then diluted directly into the assays such that the final concentration of DMSO is 0.9%. All reactions are performed in polypropylene 384-well plate. Each has a final volume of 0.02 ml. The assay plates are incubated at room temperature with shaking for 1 hour and the affinity beads are washed with wash buffer (1×PBS, 0.05% Tween 20). The beads are then re-suspended in elution buffer (1× PBS, 0.05% Tween 20, 0.5 μM non-biotinylated affinity ligand) and incubated at room temperature with shaking for 30 minutes. The kinase concentration in the eluates is measured by qPCR. […] In some embodiments, provided compounds may be JAK2-selective over one or more of the following kinases: JAK1, JAK3, and Tyk2.

The target in series [3] is T3, Tyk2 (Homo sapiens, UniProt P29597).
T3 construct: made in house; host or cells: T7 phage in BL21-derived E. coli or HEK-293 cells
Nature of the series: JAK Family Selectivity Assay: Tyk2 vs JAK2 binding affinity. The conditions noted are these: Kd TYK2 over Kd JAK2. As to the method: as §1

Series [4] is described as follows: Kinetic Solubility Assay. Format: physicochemical. To be noted: aqueous buffer, kinetic from dmso stock, kinetic solubility in PBS (pH 4.0 and pH 7.4 in method; pH of table values not stated), RT. The method, then: Stock solutions of test compounds are prepared in DMSO at the concentration of 10 mM, and a stock solution of control compound is prepared in DMSO at the concentration of 30 mM. Diclofenac is used as positive control in the assay. 30 μL stock solution of each compound is placed into their a 96-well rack, followed by adding 970 μL of PBS at pH 4.0 and pH 7.4 into each vial of the cap-less solubility sample plate. This study is performed in duplicate. One stir stick is added to each vial and then vials are sealed using a molded PTDE/SIL 96-Well Plate Cover. The solubility sample plate is transferred to the Thermomixer comfort plate shaker and incubated at RT for 2 hours with shaking at 1100 rpm. After 2 hours incubation, stir sticks are removed using a big magnet and all samples from the solubility sample plate are transferred into the filter plate. All the samples are filtered by vacuum manifold. The filtered samples are diluted with methanol. Samples are analyzed by LC-MS/MS and quantified against a standard of known concentration in DMSO using LC coupled with Mass spectral peak identification and quantitation. The solubility values of the test compounds are calculated as follows, wherein INJ VOL is injection volume, DF is dilution factor, and STD is standard: […]

Series [5] concerns the target T4, JAK3 (Homo sapiens, UniProt P52333).
T4 construct: made in house; host or cells: T7 phage in BL21-derived E. coli or HEK-293 cells
T4 sequence (P52333 1-1124): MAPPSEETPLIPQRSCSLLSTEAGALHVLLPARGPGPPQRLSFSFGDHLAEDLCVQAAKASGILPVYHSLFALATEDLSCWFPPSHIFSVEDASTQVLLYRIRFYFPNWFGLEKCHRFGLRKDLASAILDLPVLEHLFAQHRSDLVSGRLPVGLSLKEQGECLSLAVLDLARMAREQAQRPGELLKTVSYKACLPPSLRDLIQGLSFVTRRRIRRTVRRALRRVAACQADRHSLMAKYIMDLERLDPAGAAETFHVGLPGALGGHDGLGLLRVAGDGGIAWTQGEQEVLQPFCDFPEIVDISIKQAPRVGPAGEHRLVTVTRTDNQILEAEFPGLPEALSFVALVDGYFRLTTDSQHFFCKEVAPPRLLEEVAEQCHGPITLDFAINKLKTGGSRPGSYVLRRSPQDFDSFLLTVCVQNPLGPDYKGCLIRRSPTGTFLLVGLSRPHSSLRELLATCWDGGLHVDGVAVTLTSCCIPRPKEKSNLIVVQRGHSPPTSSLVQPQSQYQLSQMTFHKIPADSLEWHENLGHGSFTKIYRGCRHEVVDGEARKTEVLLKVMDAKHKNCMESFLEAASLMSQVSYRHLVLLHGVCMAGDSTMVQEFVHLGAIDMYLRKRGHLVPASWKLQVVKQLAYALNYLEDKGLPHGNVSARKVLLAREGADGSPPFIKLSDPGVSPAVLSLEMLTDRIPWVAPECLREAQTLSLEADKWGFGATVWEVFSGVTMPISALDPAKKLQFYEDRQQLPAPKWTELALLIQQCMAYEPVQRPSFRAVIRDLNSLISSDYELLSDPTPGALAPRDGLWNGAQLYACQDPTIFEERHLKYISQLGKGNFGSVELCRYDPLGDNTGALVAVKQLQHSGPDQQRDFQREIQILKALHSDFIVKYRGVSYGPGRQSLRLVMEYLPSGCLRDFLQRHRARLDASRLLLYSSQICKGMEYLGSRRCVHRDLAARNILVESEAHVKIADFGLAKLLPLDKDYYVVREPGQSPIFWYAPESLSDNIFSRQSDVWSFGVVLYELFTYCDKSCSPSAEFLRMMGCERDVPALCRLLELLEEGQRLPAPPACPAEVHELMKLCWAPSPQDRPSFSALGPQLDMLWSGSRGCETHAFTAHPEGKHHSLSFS
Briefly: JAK Family Selectivity Assay: JAK3 vs JAK2 binding affinity. The conditions noted are these: Kd JAK3 over Kd JAK2. As to the method: as §1

T1 sequence (O60674 849-1124 Y1007F/Y1008F limits assumed): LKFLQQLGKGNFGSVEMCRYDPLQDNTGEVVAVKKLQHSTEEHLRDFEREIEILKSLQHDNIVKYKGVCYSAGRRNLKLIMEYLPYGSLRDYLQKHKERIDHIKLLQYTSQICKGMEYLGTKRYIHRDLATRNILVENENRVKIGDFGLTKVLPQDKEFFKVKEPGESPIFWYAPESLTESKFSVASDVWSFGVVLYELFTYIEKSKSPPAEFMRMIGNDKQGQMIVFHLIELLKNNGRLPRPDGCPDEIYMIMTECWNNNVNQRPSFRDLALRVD
T3 sequence (P29597 whole entry): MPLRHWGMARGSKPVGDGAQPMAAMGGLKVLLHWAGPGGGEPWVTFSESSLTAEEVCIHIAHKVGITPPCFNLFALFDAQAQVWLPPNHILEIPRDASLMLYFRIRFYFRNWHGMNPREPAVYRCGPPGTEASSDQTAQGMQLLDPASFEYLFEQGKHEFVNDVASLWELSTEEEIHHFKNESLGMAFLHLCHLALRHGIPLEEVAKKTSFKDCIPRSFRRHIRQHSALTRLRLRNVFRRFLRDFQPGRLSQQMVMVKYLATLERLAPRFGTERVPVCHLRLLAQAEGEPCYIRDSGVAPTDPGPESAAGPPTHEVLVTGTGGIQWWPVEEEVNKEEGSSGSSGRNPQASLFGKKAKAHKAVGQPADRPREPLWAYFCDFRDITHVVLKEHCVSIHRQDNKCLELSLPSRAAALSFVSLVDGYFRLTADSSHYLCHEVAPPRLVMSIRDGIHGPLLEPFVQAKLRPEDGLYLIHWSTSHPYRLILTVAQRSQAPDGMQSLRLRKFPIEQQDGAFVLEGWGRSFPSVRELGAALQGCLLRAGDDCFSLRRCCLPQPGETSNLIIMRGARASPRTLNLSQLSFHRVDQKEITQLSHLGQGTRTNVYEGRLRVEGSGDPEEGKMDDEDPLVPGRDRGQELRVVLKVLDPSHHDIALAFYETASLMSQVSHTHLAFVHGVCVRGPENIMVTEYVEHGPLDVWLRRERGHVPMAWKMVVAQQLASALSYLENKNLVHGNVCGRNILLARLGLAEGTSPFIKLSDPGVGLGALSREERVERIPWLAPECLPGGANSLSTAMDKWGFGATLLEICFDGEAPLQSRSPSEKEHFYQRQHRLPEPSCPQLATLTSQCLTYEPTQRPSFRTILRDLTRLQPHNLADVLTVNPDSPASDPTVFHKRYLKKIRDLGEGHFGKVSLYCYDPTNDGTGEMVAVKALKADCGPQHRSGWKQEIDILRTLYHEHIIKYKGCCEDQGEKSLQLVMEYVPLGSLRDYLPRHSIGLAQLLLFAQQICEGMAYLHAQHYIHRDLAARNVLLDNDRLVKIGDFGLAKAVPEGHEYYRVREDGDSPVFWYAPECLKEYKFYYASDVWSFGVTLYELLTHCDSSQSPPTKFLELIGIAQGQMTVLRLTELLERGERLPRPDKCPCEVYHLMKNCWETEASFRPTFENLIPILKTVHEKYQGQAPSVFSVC
T2 sequence (P23458 whole entry): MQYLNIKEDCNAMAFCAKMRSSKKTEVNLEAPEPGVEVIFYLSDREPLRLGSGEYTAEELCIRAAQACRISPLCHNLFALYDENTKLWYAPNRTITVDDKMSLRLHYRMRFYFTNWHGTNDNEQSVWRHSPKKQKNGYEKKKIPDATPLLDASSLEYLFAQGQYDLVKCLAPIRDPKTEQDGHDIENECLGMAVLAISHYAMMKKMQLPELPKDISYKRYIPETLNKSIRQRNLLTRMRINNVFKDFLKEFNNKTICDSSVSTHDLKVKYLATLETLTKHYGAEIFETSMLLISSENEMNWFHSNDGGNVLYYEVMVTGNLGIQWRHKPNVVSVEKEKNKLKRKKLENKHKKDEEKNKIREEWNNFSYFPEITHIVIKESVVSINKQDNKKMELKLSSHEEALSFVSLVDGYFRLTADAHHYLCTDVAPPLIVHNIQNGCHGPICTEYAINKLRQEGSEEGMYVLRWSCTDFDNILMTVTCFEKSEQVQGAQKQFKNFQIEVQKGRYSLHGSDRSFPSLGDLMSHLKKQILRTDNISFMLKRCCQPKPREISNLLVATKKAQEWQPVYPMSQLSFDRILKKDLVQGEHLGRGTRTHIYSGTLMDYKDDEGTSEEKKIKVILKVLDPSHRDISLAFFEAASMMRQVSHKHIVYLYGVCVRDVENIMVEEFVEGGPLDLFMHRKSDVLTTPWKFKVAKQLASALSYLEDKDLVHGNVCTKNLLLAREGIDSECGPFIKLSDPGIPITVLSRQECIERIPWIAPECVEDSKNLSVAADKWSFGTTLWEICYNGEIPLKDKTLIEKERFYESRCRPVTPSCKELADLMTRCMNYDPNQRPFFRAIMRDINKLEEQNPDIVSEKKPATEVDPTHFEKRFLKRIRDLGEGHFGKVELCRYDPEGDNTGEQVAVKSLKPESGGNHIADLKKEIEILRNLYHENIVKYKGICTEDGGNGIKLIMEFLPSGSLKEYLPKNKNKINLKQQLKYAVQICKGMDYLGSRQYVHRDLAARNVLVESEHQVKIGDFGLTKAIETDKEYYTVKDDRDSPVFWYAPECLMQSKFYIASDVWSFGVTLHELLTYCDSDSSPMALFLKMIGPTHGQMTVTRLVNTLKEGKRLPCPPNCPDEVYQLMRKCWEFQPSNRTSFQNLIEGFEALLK

As for `COCC(=O)Nc1cc(Oc2cnc3nc(Nc4cc(C(F)(F)F)cn(C)c4=O)n(C)c3c2C#N)ccn1` [Example I-79, N-(4-((7-cyano-1-methyl-2-((1-methyl-2-oxo-5-(trifluoromethyl)-1,2-dihydropyridin-3-yl)amino)-1H-imidazo[4,5-b]pyridin-6-yl)oxy)pyridin-2-yl)-2-methoxyacetamide], the Kd in series [1] was < 10 nM. In addition, in series [2], the “JAK1/JAK2 Kd/Kd ratio” value is “C (Kd/Kd ratio <300 and ≥100)”. Further, the “TYK2/JAK2 Kd/Kd ratio” value in series [3] is “C (Kd/Kd ratio <300 and ≥100)”. In series [4], this molecule registered a solubility at 2 h of 0.1 to 9 µM (≈ 0.0528 to 4.76 µg/mL). Moreover, the “JAK3/JAK2 Kd/Kd ratio” value in series [5] is “A (Kd/Kd ratio ≥1000)”.
Regarding `CC(=O)Nc1cc(Oc2cnc3nc(Nc4cc(C(F)(F)F)cn(C)c4=O)n(C)c3c2Cl)c(F)cn1` [Example I-88, N-(4-((7-chloro-1-methyl-2-((1-methyl-2-oxo-5-(trifluoromethyl)-1,2-dihydropyridin-3-yl)amino)-1H-imidazo[4,5-b]pyridin-6-yl)oxy)-5-fluoropyridin-2-yl)acetamide], in series [1], the Kd was < 10 nM. For the same molecule, the “JAK1/JAK2 Kd/Kd ratio” value in series [2] was “B (Kd/Kd ratio <1000 and ≥300)”. Further, the “TYK2/JAK2 Kd/Kd ratio” value in series [3] was “D (Kd/Kd ratio <100)”. Moreover, the solubility at 2 h in series [4] was 0.1 to 9 µM (≈ 0.0526 to 4.73 µg/mL). The “JAK3/JAK2 Kd/Kd ratio” value in series [5] was “A (Kd/Kd ratio ≥1000)”.
On to `Cn1c(Nc2cc3n(n2)CCC32CCC2)nc2ncc(Oc3ccnc(NC(=O)C4CC4)c3)c(C#N)c21` [Example I-122, N-(4-((7-cyano-2-((5′,6′-dihydrospiro[cyclobutane-1,4′-pyrrolo[1,2-b]pyrazol]-2′-yl)amino)-1-methyl-1H-imidazo[4,5-b]pyridin-6-yl)oxy)pyridin-2-yl)cyclopropanecarboxamide], for which the Kd in series [1] was < 10 nM. Moreover, the “JAK1/JAK2 Kd/Kd ratio” value in series [2] is “D (Kd/Kd ratio <100)”. Besides, the “TYK2/JAK2 Kd/Kd ratio” value in series [3] is recorded as “D (Kd/Kd ratio <100)”. Moreover, in series [4], the solubility at 2 h is 0.1 to 9 µM (≈ 0.0496 to 4.46 µg/mL). In series [5], the “JAK3/JAK2 Kd/Kd ratio” value was “B (Kd/Kd ratio <1000 and ≥300)”.
As for `CCN1CCN(Cc2ccc(Nc3nc4ccc(Oc5ccnc(NC(C)=O)c5)cc4n3C)cc2C(F)(F)F)CC1` [Example R-1, reference compound], in series [1], the Kd is < 10 nM. In addition, in series [2], the “JAK1/JAK2 Kd/Kd ratio” value was “C (Kd/Kd ratio <300 and ≥100)”. For the same molecule, the “TYK2/JAK2 Kd/Kd ratio” value in series [3] is “C (Kd/Kd ratio <300 and ≥100)”. This molecule also registered a solubility at 2 h in series [4] of 100 to 200 µM (≈ 56.8 to 114 µg/mL). Besides, the “JAK3/JAK2 Kd/Kd ratio” value in series [5] is recorded as “A (Kd/Kd ratio ≥1000)”.

The values are drawn from patent US11970494B2, “6-heteroaryloxy benzimidazoles and azabenzimidazoles as JAK2 inhibitors” (Ajax Therapeutics, Inc., priority 2021, dated 2024).
